{"source": "patent US11198731B2", "about": "(Exelixis, Inc., priority 2017, dated 2021)", "origin": "cited, not measured here", "key": {"[1]": {"system": "platinum-pretreated NSCLC", "settings": "cited from earlier work; for OS hazard ratio: vs docetaxel"}, "[2]": {"system": "NSCLC without EGFR genetic alterations", "settings": "cited from earlier work"}, "[3]": {"system": "advanced RCC after prior VEGFR-TKI", "settings": "cited from earlier work"}, "[4]": {"system": "advanced CRPC with bone metastases", "settings": "cited from earlier work"}, "[5]": {"system": "previously-untreated advanced RCC of intermediate- or poor-risk", "settings": "cited from earlier work"}, "[6]": {"system": "locally advanced or metastatic UC", "settings": "cited from earlier work"}, "[7]": {"system": "advanced RCC of clear cell or non-clear cell histology", "settings": "cited from earlier work"}, "cisplatin-ineligible UC": {"system": "cisplatin-ineligible UC", "settings": "cited from earlier work"}, "advanced NSCLC": {"system": "advanced NSCLC", "settings": "cited from earlier work"}, "[8]": {"system": "locally advanced or metastatic UC", "settings": "cited from earlier work", "remark": "listed apart in the source"}, "[9]": {"settings": "PD-L1 positive population (2 1% PD-L1 expression)"}, "[10]": {"settings": "subjects with ≥5% PD-L1 expression"}}, "note": "Read-outs that look alike come from different tables or passages of the source.", "data": [{"molecule": "CC(=O)O[C@@]12CO[C@@H]1C[C@H](O)[C@@]1(C)C(=O)[C@H](O)C3=C(C)[C@@H](OC(=O)[C@H](O)[C@@H](NC(=O)OC(C)(C)C)c4ccccc4)C[C@@](O)([C@@H](OC(=O)c4ccccc4)[C@H]21)C3(C)C", "note": "[docetaxel]", "values": [{"measurement": "Median OS", "setting": "[1]; ITT population", "result": 9.6, "unit": "months"}, {"measurement": "ORR", "setting": "[1]; ITT population", "result": 13, "unit": "%"}, {"measurement": "Median OS", "setting": "[1]; [9]", "result": 10.3, "unit": "months"}, {"measurement": "Treatment-related Grade 3 or 4 AEs", "setting": "[1]", "result": 43, "unit": "%"}, {"measurement": "Median DOR", "setting": "[1]; in vivo", "result": 6.2, "unit": "months"}, {"measurement": "Subjects who discontinued treatment due to AE", "setting": "[1]; in vivo", "result": 19, "unit": "%"}]}, {"molecule": "C#Cc1cccc(Nc2ncnc3cc(OCCOC)c(OCCOC)cc23)c1", "note": "[erlotinib, reference compound]", "values": [{"measurement": "Progression as best response", "setting": "[2]; % of subjects", "result": 66, "unit": "%"}, {"measurement": "Estimated median OS", "setting": "[2]; in vivo", "result": 5.1, "unit": "months"}, {"measurement": "ORR", "setting": "[2]; in vivo", "result": 3, "unit": "%"}, {"measurement": "PFS", "setting": "[2]; second or third line treatment", "result": 1.8, "unit": "months"}]}, {"molecule": "CO[C@H]1C[C@@H]2CC[C@@H](C)[C@@](O)(O2)C(=O)C(=O)N2CCCC[C@H]2C(=O)O[C@H]([C@H](C)C[C@@H]2CC[C@@H](OCCO)[C@H](OC)C2)CC(=O)[C@H](C)/C=C(\\C)[C@@H](O)[C@@H](OC)C(=O)[C@H](C)C[C@H](C)/C=C/C=C/C=C/1C", "note": "[everolimus]", "values": [{"measurement": "ORR per IRC", "setting": "[3]; ITT population", "result": 3, "unit": "%"}, {"measurement": "Median duration of PFS (Kaplan-Meier)", "setting": "[3]; Primary Endpoint Intent-to-Treat population", "result": 3.8, "unit": "months"}, {"measurement": "Median duration of OS (Kaplan-Meier)", "setting": "[3]; in vivo", "result": 16.5, "unit": "months"}, {"measurement": "Treatment discontinuations due to AEs", "setting": "[3]; incidence in each arm", "result": 10, "unit": "%"}]}, {"molecule": "C[C@]12C=CC(=O)C=C1CC[C@@H]1[C@@H]2C(=O)C[C@@]2(C)[C@H]1CC[C@]2(O)C(=O)CO", "note": "[prednisone, reference compound]", "values": [{"measurement": "Proportion of subjects with a bone scan response (BSR) per IRC", "setting": "[4]; at Week 12", "result": 3, "unit": "%"}, {"measurement": "Median PFS per investigator", "setting": "[4]; exploratory endpoint", "result": 2.8, "unit": "months"}, {"measurement": "Median duration of BSR", "setting": "[4]; in vivo", "result": 1.8, "unit": "months"}, {"measurement": "Median duration of OS (Kaplan-Meier)", "setting": "[4]; in vivo", "result": 9.8, "unit": "months"}]}, {"molecule": "CCN(CC)CCNC(=O)c1c(C)[nH]c(/C=C2\\C(=O)Nc3ccc(F)cc32)c1C", "note": "[sunitinib, reference compound]", "values": [{"measurement": "Discontinued study treatment due to an AE", "setting": "[5]; 16 subjects in each arm", "result": 21, "unit": "%"}, {"measurement": "Adverse events of ≥Grade 3 regardless of causality", "setting": "[5]; % of subjects", "result": 65, "unit": "%"}, {"measurement": "≥Grade 3 AE: PPE", "setting": "[5]; in vivo", "result": 4, "unit": "%"}, {"measurement": "≥Grade 3 AE: diarrhea", "setting": "[5]; in vivo", "result": 11, "unit": "%"}, {"measurement": "≥Grade 3 AE: fatigue", "setting": "[5]; in vivo", "result": 17, "unit": "%"}, {"measurement": "≥Grade 3 AE: hematological events", "setting": "[5]; in vivo", "result": 21, "unit": "%"}, {"measurement": "≥Grade 3 AE: hypertension", "setting": "[5]; in vivo", "result": 21, "unit": "%"}]}, {"molecule": "atezolizumab: humanized immunoglobulin (Ig) G1 monoclonal antibody that targets programmed death receptor 1 ligand (PD-L1)", "values": [{"measurement": "Adverse events leading to treatment discontinuation", "setting": "[6]; in vivo", "result": 3.2, "unit": "%"}, {"measurement": "Treatment-emergent anti-therapeutic antibodies detected", "setting": "[6]; in vivo", "result": 41.5, "unit": "%"}, {"measurement": "irAE: aspartate aminotransferase (AST) increased", "setting": "[6]; in vivo", "result": 2, "unit": "%"}, {"measurement": "irAE: pneumonitis", "setting": "[6]; in vivo", "result": 2, "unit": "%"}, {"measurement": "Median OS", "setting": "[6]; overall population", "result": 7.9, "unit": "months"}, {"measurement": "Median PFS", "setting": "[6]; overall population", "result": 2.1, "unit": "months"}, {"measurement": "Overall ORR by IRF", "setting": "[6]; overall population", "result": 14.8, "unit": "%"}, {"measurement": "ORR by IRF", "setting": "[6]; subjects with <5% PD-L1 expression", "result": 9.5, "unit": "%"}, {"measurement": "ORR by IRF", "setting": "[6]; subjects with ? 5% PD-L1 expression", "result": 26.0, "unit": "%"}, {"measurement": "Median OS", "setting": "[6]; [10]", "result": 11.9, "unit": "months"}, {"measurement": "Median OS", "setting": "[1]; ITT population", "result": 13.8, "unit": "months"}, {"measurement": "ORR", "setting": "[1]; ITT population", "result": 14, "unit": "%"}, {"measurement": "OS hazard ratio", "setting": "[1]; ITT population", "result": 0.73}, {"measurement": "Median OS", "setting": "[1]; [9]", "result": 15.7, "unit": "months"}, {"measurement": "OS hazard ratio", "setting": "[1]; PD-L1 positive population", "result": 0.74}, {"measurement": "AE of any grade: asthenia", "setting": "[1]; in vivo", "result": 8, "unit": "%"}, {"measurement": "AE of any grade: decreased appetite", "setting": "[1]; in vivo", "result": 9, "unit": "%"}, {"measurement": "AE of any grade: fatigue", "setting": "[1]; in vivo", "result": 14, "unit": "%"}, {"measurement": "AE of any grade: nausea", "setting": "[1]; in vivo", "result": 9, "unit": "%"}, {"measurement": "Immune-related AE: colitis", "setting": "[1]; in vivo", "result": "two"}, {"measurement": "Immune-related AE: hepatitis", "setting": "[1]; in vivo", "result": "two"}, {"measurement": "Immune-related AE: pneumonitis", "setting": "[1]; in vivo", "result": "four"}, {"measurement": "Median DOR", "setting": "[1]; in vivo", "result": 16.3, "unit": "months"}, {"measurement": "Subjects who discontinued treatment due to AE", "setting": "[1]; in vivo", "result": 8, "unit": "%"}, {"measurement": "Treatment-related Grade 3 or 4 AEs", "setting": "[1]; in vivo", "result": 15, "unit": "%"}, {"measurement": "Median OS", "setting": "[7]; clear cell RCC", "result": 28.9, "unit": "months"}, {"measurement": "Overall median PFS", "setting": "[7]; clear cell RCC", "result": 5.6, "unit": "months"}, {"measurement": "Grade 4 or 5 treatment-related AEs", "setting": "[7]; in vivo", "result": "no Grade 4 or 5 treatment-related AEs"}, {"measurement": "Treatment-related Grade 3 events", "setting": "[7]; in vivo", "result": 17, "unit": "%"}, {"measurement": "Median OS", "setting": "cisplatin-ineligible UC; all subjects irrespective of PD-L1 expression level", "result": 15.9, "unit": "months"}, {"measurement": "Overall ORR by IRF", "setting": "cisplatin-ineligible UC; all subjects", "result": 23, "unit": "%"}, {"measurement": "ORR by IRF", "setting": "cisplatin-ineligible UC; subjects with <5% PD-L1", "result": 21, "unit": "%"}, {"measurement": "ORR by IRF", "setting": "cisplatin-ineligible UC; [10]", "result": 28, "unit": "%"}, {"measurement": "Median OS", "setting": "advanced NSCLC; PD-L1 high group", "result": 26.9, "unit": "months"}, {"measurement": "Median PFS", "setting": "advanced NSCLC; PD-L1 high group", "result": 5.4, "unit": "months"}, {"measurement": "Median duration of response", "setting": "advanced NSCLC; PD-L1 high group", "result": "~10", "unit": "months"}, {"measurement": "AE leading to discontinuation: Grade 3 or 4 pneumonitis", "setting": "advanced NSCLC; in vivo", "result": 1, "unit": "%"}, {"measurement": "AE leading to discontinuation: any grade pneumonia", "setting": "advanced NSCLC; in vivo", "result": 1, "unit": "%"}, {"measurement": "Adverse events leading to treatment discontinuation", "setting": "advanced NSCLC; in vivo", "result": 7, "unit": "%"}, {"measurement": "Treatment-related AEs of Grade 3 or 4", "setting": "advanced NSCLC; in vivo", "result": 9, "unit": "%"}, {"measurement": "Treatment-related Grade 5 event", "setting": "advanced NSCLC; in vivo", "result": "no treatment-related Grade 5 event"}, {"measurement": "OS", "setting": "advanced NSCLC; unselected untreated NSCLC subjects", "result": 23.5, "unit": "months"}, {"measurement": "Duration of response (DOR)", "setting": "[8]; overall population", "result": 21.7, "unit": "months"}, {"measurement": "Overall ORR", "setting": "[8]; overall population", "result": 13, "unit": "%"}, {"measurement": "OS hazard ratio", "setting": "[8]; overall population, vs chemotherapy", "result": 0.85}, {"measurement": "ORR", "setting": "[8]; [10]", "result": 23.0, "unit": "%"}]}]}
